Data reported in patent US20260263551A1, “TREATING CONDITIONS WITH HYPOGLYCEMIA ASSOCIATED WITH HYPERINSULINEMIA” (RESILIUN B.V., priority 2022, published 2026).
Where a SMILES comes first, the peptide text is derived from it.

Columns and labels:
mTOR = settings: piglets; cited from earlier work
[1] = in vivo; cited from earlier work
[2] = tested on: human pulmonary microvascular endothelial cells (Hpmec); experiment: Microvascular angiogenesis (sprouting) assay in Matrigel; assay type: cell-based; settings: t=16, 24 and 40h (P=0.48, 0.011 and 0.032)
Text: Microvascular angiogenesis assay of human pulmonary microvascular endothelial cells grown in Matrigel as determinant of ERC-reactivity and in response to increasing concentrations of GXXP-peptides 3, 6 and 8, (VGVAPGVGVAPGVGVAPG, QVGQVELGGGPGAGSLQP and GAYPGAPGAYPGAPAPGV, taken from the exon 24 region of human elastin, from the mid-portion of human C-peptide, and from the N-terminal portion of human Galectin-3, FIGS. 4a, 4b and 4c, respectively). Data shown are total tube length measurements and total branch length measurements at t=24 h. * p<0.05; ** p<0.01; *** p<0.001. At 4 h no angiogenic activity of the various peptides was as yet observed.
As measuring insulin resistance in vitro is a cumbersome feat, the effect of three elastin fragment peptides and related GXXP-peptides on endothelial cell sprouting were assessed instead. Endothelial cells (Hpmec, n=4) were serum starved for 24 hours, trypsinised and seeded in growth factor-reduced Matrigel. […] Sprouting by means of mean total tube length and mean total branch length per field of view were quantified with ImageJ software. […]
Pictures were analyzed using the plug-in angiogenesis analyzer in ImageJ. […]

Na+, K+-ATPase [3] = settings: purified preparation of Na+,K+-ATPase; cited from earlier work
Na+, K+-ATPase [4] = settings: cited from earlier work
Na+, K+-ATPase [5] = settings: rat renal tubular segments; peptides tested at 5×10^-7 mol/l; cited from earlier work
human skin fibroblast = settings: cited from earlier work
[6] = tested on: fibroblasts and monocytes; settings: cited from earlier work
[7] = single infusion, healthy adults; cited from earlier work
[8] = infants >2 years of age; cited from earlier work

Molecule: C[C@H](N)C(=O)N[C@@H](CCC(N)=O)C(=O)O [AQ, Alanyl-glutamine] (H-Ala-Gln-OH)
- autophagy / mTOR modulation (mTOR): autophagy-inhibition

Molecule: C[C@@H](O)[C@@H]1NC(=O)[C@H](CCCCN)NC(=O)[C@@H](Cc2c[nH]c3ccccc23)NC(=O)[C@H](Cc2ccccc2)NC(=O)[C@@H](NC(=O)[C@H](N)Cc2ccccc2)CSSC[C@@H](C(=O)N[C@H](CO)[C@@H](C)O)NC1=O [octreotide]
- half-life [1]: around 100 min

Molecule: CC(=O)N[C@H]1[C@H]([C@H](O)[C@H](O)CO)OC(C(=O)O)=C[C@@H]1O [DANA, 2,3-dehydro-2-deoxy-N-acetylneuraminic acid]
- effect on the angiogenic effects of peptide 3 [2]: significantly potentiated

Molecule: ELGGGPEAG [PG-domain peptide of rat C-peptide 1]
- direct activation of isolated ATPase (Na+, K+-ATPase [3]): No measurable activation

Molecule: COc1cccc(-c2cc(=O)c3ccccc3o2)c1N [PD98059]
- effect on C-peptide-stimulated Na+,K+-ATPase activation, α1-subunit phosphorylation and translocation to BLM (Na+, K+-ATPase [4]; 20 μM, MEK1/2 inhibitor): abolished

Molecule: EGSLQ
- activity relative to intact C-peptide (Na+, K+-ATPase [5]): 75%
- activity relative to the intact molecule (Na+, K+-ATPase [4]; HRTCs): 57%

Molecule: CN(C)CCCn1cc(C2=C(c3c[nH]c4ccccc34)C(=O)NC2=O)c2ccccc21 [G F109203X]
- effect on C-peptide stimulation of 86Rb+ uptake (Na+, K+-ATPase [4]; 1 μM preincubation, PKC inhibitor): abolished

Molecule: EVARQ
- activity relative to intact C-peptide (Na+, K+-ATPase [5]): 100%
- direct activation of isolated ATPase (Na+, K+-ATPase [3]): No measurable activation

Molecule: human C-peptide: cleavage product of the proinsulin molecule (RREAEDLQVGQVELGGGPGAGSLQPLALEGSLQKR)
- stimulation of 86Rb+ uptake (Na+, K+-ATPase [4]; 5 nM, 37° C., 10 min, HRTCs): 40%

Molecule: VGVAPG [Chemotactic Domain of Elastin, Bachem product number 4010536]
- fibroblast proliferation (human skin fibroblast): stimulated human skin fibroblast proliferation
- chemotactic activity [6]: chemotactic for fibroblasts and monocytes

B1: XOMA 358: antibody XOMA 358 (aka RZ358), monoclonal antibody given by infusion (antibody, chains of the INN, looked up, V domains shown)
VH: EVQLVETGGGVVQPGRSLRLSCAASGFTFSSYAMHWVRQAPGKGLEWYAVISYDGSNKYYADSVKGRFTISRDNSKNTLYLQMNSLRAEDTAVYYCARHEWGFGMDVWGQGTTVTVSS
VL: DVVMTQSPLSLSVTLGQPASISCRSSLSLVYGDENTYLNWFQQRPGQSPRRLLYKVSDRDSGVPDRFSGSGSGTDFTLKISRVEADDVGVYYCMQGTHWPYTFGQGTKLEIK
- insulin sensitivity [7]: dose-dependent reduction in insulin sensitivity
- hypoglycemia [8]: reduction of hypoglycemia
